{"source": "patent US20060189608A1", "about": "“Methods for treating ocular angiogenesis, retinal edema, retinal ischemia, and diabetic retinopathy using selective RTK inhibitors” (Alcon, Inc., priority 2005, published 2006)", "origin": "cited, not measured here", "key": {"[1]": {"tested_on": "preretinal and choroidal NV", "details": "oral administration, mice; cited from earlier work"}, "diabetic macular edema": {"tested_on": "diabetic macular edema", "details": "human patients with diabetic macular edema, cited from earlier work"}}, "data": [{"smiles": "CO[C@@H]1[C@H](N(C)C(=O)c2ccccc2)C[C@H]2O[C@]1(C)n1c3ccccc3c3c4c(c5c6ccccc6n2c5c31)C(=O)NC4", "note": "[PKC-412]", "values": [{"measurement": "effect on preretinal and choroidal NV", "setting": "[1]", "value": "inhibited both preretinal and choroidal NV in mice"}, {"measurement": "macular edema and visual acuity", "setting": "diabetic macular edema; pilot results", "value": "a reduction in macular edema and an improvement in visual acuity"}, {"measurement": "liver toxicity", "setting": "diabetic macular edema", "value": "concerns related to liver toxicity halted the clinical trials"}]}]}
